In US20110039762A1, “TARGETED ANTIMICROBIAL MOIETIES” (C3 JIAN, INC., priority 2009, published 2011):
“Also recorded” adds a separate entry of the source.

Each substance was assayed on microorganisms (e.g., bacteria, yeasts, fungi) (assay: Targeting peptide binding to target microorganisms (Table 3)). Details: microorganism(s) the targeting peptide binds; binding in aqueous buffers depending on peptide solubility, preferably 1x PBS.

Row | Substance | Target(s)
1 | PF-364 (LVNGIKI; Peptide with targeting and/or antimicrobial activity) | S. epidermidis; also recorded: B. fragilis; also recorded: P. aeruginosa; also recorded: C. jeikeium; also recorded: C. jejuni
2 | PF-365 (LYKQKIQLEEELEKLKDDRQ; Peptide with targeting and/or antimicrobial activity) | S. epidermidis; also recorded: B. subtilis; also recorded: B. fragilis; also recorded: P. aeruginosa; also recorded: C. albicans
3 | PF-367 (TKTPGTFTPGTGIQKTAVPL; Peptide with targeting and/or antimicrobial activity) | B. subtilis
4 | PF-368 (MLKQTA; Peptide with targeting and/or antimicrobial activity) | C. jeikeium; also recorded: C. jejuni
5 | PF-371 (TFIYNEF; Peptide with targeting and/or antimicrobial activity) | S. epidermidis; also recorded: B. fragilis; also recorded: C. jejuni
6 | PF-372 (KKQDKRIEDKYKRMKKGD; Peptide with targeting and/or antimicrobial activity) | C. jeikeium; also recorded: C. jejuni
7 | PF-384 (HISKERFEAY; Peptide with targeting and/or antimicrobial activity) | E. faecalis; also recorded: C. jeikeium; also recorded: C. jejuni

Same assay, conditions: microorganism(s) the targeting peptide binds; peptide binding conducted in aqueous buffers varied by peptide solubility, preferably 1x PBS

Row | Substance | Target(s)
8 | PF-388 (ITPLLDEIGKVCIDKISK; Peptide with targeting and/or antimicrobial activity) | E. faecalis; also recorded: C. jeikeium; also recorded: C. jejuni
9 | PF-400 (VIAWKFRNKFENSGV; Peptide with targeting and/or antimicrobial activity) | S. epidermidis; also recorded: E. coli; also recorded: S. pneumoniae; also recorded: E. faecalis; also recorded: C. jeikeium
10 | PF-402 (FIDVLKSKINEFLN; Peptide with targeting and/or antimicrobial activity) | S. epidermidis; also recorded: P. aeruginosa; also recorded: E. faecalis; also recorded: C. jejuni
11 | PF-409 (DLVQSILSEFKKSG; Peptide with targeting and/or antimicrobial activity) | S. epidermidis and MRSA and C. jeikeium and C. jejuni
12 | PF-412 (TSGWLGQLEQ; Peptide with targeting and/or antimicrobial activity) | M. luteus; also recorded: E. coli; also recorded: C. albicans; also recorded: C. jeikeium; also recorded: C. jejuni
13 | PF-435 (MSRWDGHSDKGEAPAGKPPMHGFGLNGENK; Peptide with targeting and/or antimicrobial activity) | C. jeikeium
14 | PF-436 (KKHVLVGKQEKNG; Peptide with targeting and/or antimicrobial activity) | C. jeikeium
15 | PF-438 (QPYFQNQFKKITGYTPLQYRKEKR; Peptide with targeting and/or antimicrobial activity) | S. epidermidis; also recorded: E. coli; also recorded: S. pneumoniae; also recorded: C. jeikeium; also recorded: C. jejuni
16 | PF-441 (TQVHKMARGIDPGPANGIYR; Peptide with targeting and/or antimicrobial activity) | C. jeikeium
17 | PF-463 (MVILVFSLIFIFTDNYLVYQSKSIKEDVMI; Peptide with targeting and/or antimicrobial activity) | S. epidermidis; also recorded: E. coli; also recorded: P. aeruginosa; also recorded: C. albicans; also recorded: S. pneumoniae; also recorded: E. faecalis; also recorded: M. smegmatis
18 | PF-481 (DELYEIMDKVIEEFNKDIEQNNNNGNNEDLTENKIN; Peptide with targeting and/or antimicrobial activity) | C. jeikeium
19 | PF-483 (EDNKDKKDKKDK; Peptide with targeting and/or antimicrobial activity) | P. mirabilis; also recorded: C. jeikeium; also recorded: C. jejuni
20 | PF-486 (MQKEGEEDY; Peptide with targeting and/or antimicrobial activity) | S. mutans
